Results from US20110212100A1, “METHODS FOR MODULATING DEVELOPMENT AND EXPANSION OF IL-17 EXPRESSING CELLS” (priority 2007, published 2011).
pIC50: −log10 of the molar value. Values joined by “and” are separate entries in the source; they are usually repeats but may differ in a detail not shown here. Identical values can stand only once. Like-named read-outs stand apart in the source and are kept apart here.

Key:
[1] = cited from earlier work
[2] = tested on: Th17 differentiation of CD4+ CD25− T cells; assay: Th17 differentiation (IL-17+ IFNγ− cells) of T cells activated with TGFβ plus IL-6; type: cell-based; details: Mus musculus, T-cell, 96 h; murine CD4+ CD25− T cells, restimulation on day 4-5; ± 0.4 nM; read-out: IC50 of repression of Th17 differentiation (percentage of IL-17+ IFNγ− cells)
[3] = tested on: CD4+ CD25− T cells activated in Th17-priming conditions; type: cell-based, mouse; details: 10 nM HF vs MAZ1310, mean ± SD, triplicate

O=C(CC1NCCCC1O)Cn1cnc2cc(Br)c(Cl)cc2c1=O (racemic) [HF, 7-bromo-6-chloro-3-[3-(3-hydroxy-2-piperidinyl)-2-oxopropyl]-4(3H)-quinazolinone]
peak plasma concentration ([1]; oral 3.5 mg/day): 3 ng/ml and ~8 nM
dose at which dose limiting toxicity occurred ([1]; oral (de Jonge et al.)): 3.5 mg/day
dose limiting toxicity, in words ([1]; oral): nausea and vomiting
recommended tolerated dose for chronic treatment ([1]; oral): 0.5 mg/day
dose limiting toxicity, in words ([1]; oral, listed as halofuginone): nausea
pIC50 [2]: 8.44
Aars transcript, fold increase HF vs. MAZ1310-3 hr ([3]; 3 hr): 2.7 ± 0.4 fold
Aff1 transcript, fold increase HF vs. MAZ1310-3 hr ([3]; 3 hr): 2.3 ± 0.4 fold
Aldh18a1 transcript, fold increase HF vs. MAZ1310-3 hr ([3]; 3 hr): 2.1 ± 0.5 fold
Asns transcript, fold increase HF vs. MAZ1310-3 hr ([3]; 3 hr): 6.1 ± 1.2 fold
Atf3 transcript, fold increase HF vs. MAZ1310-3 hr ([3]; 3 hr): 3.0 ± 0.1 fold
Atf5 transcript, fold increase HF vs. MAZ1310-3 hr ([3]; 3 hr): 2.4 ± 0.1 fold
Cars transcript, fold increase HF vs. MAZ1310-3 hr ([3]; 3 hr): 2.2 ± 0.4 fold
Cd274 transcript, fold increase HF vs. MAZ1310-3 hr ([3]; 3 hr): 2.1 ± 0.2 fold
Cebpb transcript, fold increase HF vs. MAZ1310-3 hr ([3]; 3 hr): 3.9 ± 0.6 fold
Cebpg transcript, fold increase HF vs. MAZ1310-3 hr ([3]; 3 hr): 2.5 ± 0.5 fold
Chd2 transcript, fold increase HF vs. MAZ1310-3 hr ([3]; 3 hr): 2.2 ± 0.3 fold
Cldn12 transcript, fold increase HF vs. MAZ1310-3 hr ([3]; 3 hr): 3.2 ± 0.7 fold
Clic4 transcript, fold increase HF vs. MAZ1310-3 hr ([3]; 3 hr): 2.4 ± 0.2 fold
Cth transcript, fold increase HF vs. MAZ1310-3 hr ([3]; 3 hr): 2.2 ± 0.7 fold
Cxcl10 transcript, fold increase HF vs. MAZ1310-3 hr ([3]; 3 hr): 2.1 ± 0.3 fold
D8Ertd56e transcript, fold increase HF vs. MAZ1310-3 hr ([3]; 3 hr): 2.1 ± 0.3 fold
Ddit3 transcript, fold increase HF vs. MAZ1310-3 hr ([3]; 3 hr): 5.6 ± 1.1 fold
Et4Ebp1 transcript, fold increase HF vs. MAZ1310-3 hr ([3]; 3 hr): 6.8 ± 1.8 fold
Gpt2 transcript, fold increase HF vs. MAZ1310-3 hr ([3]; 3 hr): 10.0 ± 1.2 fold
Herpud1 transcript, fold increase HF vs. MAZ1310-3 hr ([3]; 3 hr): 2.4 ± 0.3 fold
Icam1 transcript, fold increase HF vs. MAZ1310-3 hr ([3]; 3 hr): 2.0 ± 0.1 fold
Irf1 transcript, fold increase HF vs. MAZ1310-3 hr ([3]; 3 hr): 2.0 ± 0.3 fold
Lers transcript, fold increase HF vs. MAZ1310-3 hr ([3]; 3 hr): 2.3 ± 0.3 fold
Mpa2l transcript, fold increase HF vs. MAZ1310-3 hr ([3]; 3 hr): 2.3 ± 0.3 fold
Ncoa7 transcript, fold increase HF vs. MAZ1310-3 hr ([3]; 3 hr): 3.0 ± 0.3 fold
Nfkbiz transcript, fold increase HF vs. MAZ1310-3 hr ([3]; 3 hr): 2.0 ± 0.3 fold
Past1 transcript, fold increase HF vs. MAZ1310-3 hr ([3]; 3 hr): 2.1 ± 0.5 fold
Pck2 transcript, fold increase HF vs. MAZ1310-3 hr ([3]; 3 hr): 4.9 ± 0.8 fold
Pdcd1lg2 transcript, fold increase HF vs. MAZ1310-3 hr ([3]; 3 hr): 3.2 ± 0.7 fold
Phgdh transcript, fold increase HF vs. MAZ1310-3 hr ([3]; 3 hr): 3.8 ± 0.9 fold
Psph transcript, fold increase HF vs. MAZ1310-3 hr ([3]; 3 hr): 3.5 ± 0.4 fold
Pvr transcript, fold increase HF vs. MAZ1310-3 hr ([3]; 3 hr): 2.0 ± 0.3 fold
Pycr1 transcript, fold increase HF vs. MAZ1310-3 hr ([3]; 3 hr): 4.6 ± 0.7 fold
Pycs transcript, fold increase HF vs. MAZ1310-3 hr ([3]; 3 hr): 2.1 ± 0.2 fold
Sars1 transcript, fold increase HF vs. MAZ1310-3 hr ([3]; 3 hr): 2.0 ± 0.3 fold
Sesn2 transcript, fold increase HF vs. MAZ1310-3 hr ([3]; 3 hr): 2.6 ± 0.3 fold
Slamf7 transcript, fold increase HF vs. MAZ1310-3 hr ([3]; 3 hr): 2.2 ± 0.4 fold
Slc1a4 transcript, fold increase HF vs. MAZ1310-3 hr ([3]; 3 hr): 3.2 ± 0.9 fold
Slc6a9 transcript, fold increase HF vs. MAZ1310-3 hr ([3]; 3 hr): 2.4 ± 0.3 fold
Slc7a3 transcript, fold increase HF vs. MAZ1310-3 hr ([3]; 3 hr): 2.0 ± 0.2 fold
Slc14a1 transcript, fold increase HF vs. MAZ1310-3 hr ([3]; 3 hr): 2.0 ± 0.1 fold
Trib3 transcript, fold increase HF vs. MAZ1310-3 hr ([3]; 3 hr): 7.1 ± 2.0 fold
Trim12 transcript, fold increase HF vs. MAZ1310-3 hr ([3]; 3 hr): 2.4 ± 0.1 fold
Vegfa transcript, fold increase HF vs. MAZ1310-3 hr ([3]; 3 hr): 3.2 ± 0.2 fold
Xist transcript, fold increase HF vs. MAZ1310-3 hr ([3]; 3 hr): 3.5 ± 1.7 fold
Aars transcript, fold increase HF vs. MAZ1310-6 hr ([3]; 6 hr): 2.6 ± 0.2 fold
Aff1 transcript, fold increase HF vs. MAZ1310-6 hr ([3]; 6 hr): 2.6 ± 0.3 fold
Aldh18a1 transcript, fold increase HF vs. MAZ1310-6 hr ([3]; 6 hr): 2.7 ± 0.2 fold
Asns transcript, fold increase HF vs. MAZ1310-6 hr ([3]; 6 hr): 7.1 ± 0.5 fold
Atf3 transcript, fold increase HF vs. MAZ1310-6 hr ([3]; 6 hr): 3.2 ± 0.5 fold
Atf5 transcript, fold increase HF vs. MAZ1310-6 hr ([3]; 6 hr): 8.9 ± 1.0 fold
Cars transcript, fold increase HF vs. MAZ1310-6 hr ([3]; 6 hr): 2.2 ± 0.3 fold
Cd274 transcript, fold increase HF vs. MAZ1310-6 hr ([3]; 6 hr): 2.0 ± 0.1 fold
Cebpb transcript, fold increase HF vs. MAZ1310-6 hr ([3]; 6 hr): 8.0 ± 0.2 fold
Cebpg transcript, fold increase HF vs. MAZ1310-6 hr ([3]; 6 hr): 3.1 ± 0.5 fold
Chd2 transcript, fold increase HF vs. MAZ1310-6 hr ([3]; 6 hr): 2.5 ± 0.5 fold
Cldn12 transcript, fold increase HF vs. MAZ1310-6 hr ([3]; 6 hr): 4.6 ± 0.5 fold
Clic4 transcript, fold increase HF vs. MAZ1310-6 hr ([3]; 6 hr): 2.8 ± 0.2 fold
Cth transcript, fold increase HF vs. MAZ1310-6 hr ([3]; 6 hr): 16.0 ± 1.6 fold
Cxcl10 transcript, fold increase HF vs. MAZ1310-6 hr ([3]; 6 hr): 2.1 ± 0.1 fold
D8Ertd56e transcript, fold increase HF vs. MAZ1310-6 hr ([3]; 6 hr): 3.1 ± 0.8 fold
Ddit3 transcript, fold increase HF vs. MAZ1310-6 hr ([3]; 6 hr): 5.0 ± 0.7 fold
Et4Ebp1 transcript, fold increase HF vs. MAZ1310-6 hr ([3]; 6 hr): 5.3 ± 0.3 fold
Gpt2 transcript, fold increase HF vs. MAZ1310-6 hr ([3]; 6 hr): 16.7 ± 2.2 fold
Herpud1 transcript, fold increase HF vs. MAZ1310-6 hr ([3]; 6 hr): 2.7 ± 0.1 fold
Icam1 transcript, fold increase HF vs. MAZ1310-6 hr ([3]; 6 hr): 2.8 ± 0.3 fold
Irf1 transcript, fold increase HF vs. MAZ1310-6 hr ([3]; 6 hr): 2.6 ± 0.2 fold
Lers transcript, fold increase HF vs. MAZ1310-6 hr ([3]; 6 hr): 2.1 ± 0.0 fold
Mpa2l transcript, fold increase HF vs. MAZ1310-6 hr ([3]; 6 hr): 7.3 ± 1.7 fold
Ncoa7 transcript, fold increase HF vs. MAZ1310-6 hr ([3]; 6 hr): 3.2 ± 0.5 fold
Nfkbiz transcript, fold increase HF vs. MAZ1310-6 hr ([3]; 6 hr): 1.9 ± 0.3 fold
Past1 transcript, fold increase HF vs. MAZ1310-6 hr ([3]; 6 hr): 2.6 ± 0.0 fold
Pck2 transcript, fold increase HF vs. MAZ1310-6 hr ([3]; 6 hr): 7.4 ± 0.9 fold
Pdcd1lg2 transcript, fold increase HF vs. MAZ1310-6 hr ([3]; 6 hr): 2.5 ± 0.3 fold
Phgdh transcript, fold increase HF vs. MAZ1310-6 hr ([3]; 6 hr): 4.2 ± 0.3 fold
Psph transcript, fold increase HF vs. MAZ1310-6 hr ([3]; 6 hr): 3.4 ± 0.3 fold
Pvr transcript, fold increase HF vs. MAZ1310-6 hr ([3]; 6 hr): 2.0 ± 0.1 fold
Pycr1 transcript, fold increase HF vs. MAZ1310-6 hr ([3]; 6 hr): 6.6 ± 0.4 fold
Pycs transcript, fold increase HF vs. MAZ1310-6 hr ([3]; 6 hr): 2.3 ± 0.1 fold
Sars1 transcript, fold increase HF vs. MAZ1310-6 hr ([3]; 6 hr): 2.3 ± 0.1 fold
Sesn2 transcript, fold increase HF vs. MAZ1310-6 hr ([3]; 6 hr): 2.3 ± 0.2 fold
Slamf7 transcript, fold increase HF vs. MAZ1310-6 hr ([3]; 6 hr): 2.1 ± 0.2 fold
Slc1a4 transcript, fold increase HF vs. MAZ1310-6 hr ([3]; 6 hr): 4.6 ± 0.4 fold
Slc6a9 transcript, fold increase HF vs. MAZ1310-6 hr ([3]; 6 hr): 5.7 ± 0.6 fold
Slc7a3 transcript, fold increase HF vs. MAZ1310-6 hr ([3]; 6 hr): 6.5 ± 0.9 fold
Slc14a1 transcript, fold increase HF vs. MAZ1310-6 hr ([3]; 6 hr): 6.6 ± 0.4 fold
Trib3 transcript, fold increase HF vs. MAZ1310-6 hr ([3]; 6 hr): 18.5 ± 8.5 fold
Trim12 transcript, fold increase HF vs. MAZ1310-6 hr ([3]; 6 hr): 4.9 ± 0.7 fold
Vegfa transcript, fold increase HF vs. MAZ1310-6 hr ([3]; 6 hr): 5.8 ± 0.5 fold
Xist transcript, fold increase HF vs. MAZ1310-6 hr ([3]; 6 hr): 2.1 ± 0.7 fold
